Experiments:
Assay in all cases: relative viability (nuclei count vs DMSO), 5 days (fraction); higher = more cells survive
[1] = compound: CC(=O)c1c(C)c2cnc(Nc3ccc(N4CCNCC4)cn3)nc2n(C2CCCC2)c1=O [Palbociclib] + C[C@@H](Oc1cc(-c2cnn(C3CCNCC3)c2)cnc1N)c1c(Cl)ccc(F)c1Cl [Crizotinib] (partner 1 µM)
Method in brief: (§1)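 Relative viability is defined as nuclei in treated wells over nuclei in vehicle wells. Duplicate plates were run and medians reported. Lung cancer cell lines in 1536-well plates were dosed by pin tool one day after seeding, with one drug or with a fixed anchor-drug dose plus five library-drug doses (not always all listed) in √10 steps, and nuclei were counted after 5 days.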

[2] = compound: CC(=O)c1c(C)c2cnc(Nc3ccc(N4CCNCC4)cn3)nc2n(C2CCCC2)c1=O [Palbociclib] + CC(=O)Nc1cccc(-n2c(=O)n(C3CC3)c(=O)c3c(Nc4ccc(I)cc4F)n(C)c(=O)c(C)c32)c1 [Trametinib] (partner 0.02 µM)
Method in brief: as §1

[3] = compound: CC(=O)c1c(C)c2cnc(Nc3ccc(N4CCNCC4)cn3)nc2n(C2CCCC2)c1=O [Palbociclib] + Nc1ncn([C@H]2C[C@H](O)[C@@H](CO)O2)c(=O)n1 [Decitabine] (partner 2 µM)
Method in brief: as §1

[4] = compound: CC(=O)c1c(C)c2cnc(Nc3ccc(N4CCNCC4)cn3)nc2n(C2CCCC2)c1=O [Palbociclib] + O=C(CCCCCCC(=O)Nc1ccccc1)NO [Vorinostat] (partner 1 µM)
Method in brief: as §1

Row | Cell Line | relative viability ([1]; first compound 0.01 µM) | relative viability ([1]; first compound 0.03162 µM) | relative viability ([1]; first compound 0.1 µM) | relative viability ([1]; first compound 0.3162 µM) | relative viability ([1]; first compound 1 µM) | relative viability ([2]; first compound 0.01 µM) | relative viability ([2]; first compound 0.1 µM) | relative viability ([2]; first compound 0.3162 µM) | relative viability ([2]; first compound 1 µM) | relative viability ([3]; first compound 0.01 µM) | relative viability ([3]; first compound 0.1 µM) | relative viability ([3]; first compound 0.3162 µM) | relative viability ([3]; first compound 1 µM) | relative viability ([4]; first compound 0.01 µM) | relative viability ([4]; first compound 0.1 µM) | relative viability ([4]; first compound 0.3162 µM) | relative viability ([4]; first compound 1 µM) | relative viability ([2]; first compound 0.03162 µM) | relative viability ([3]; first compound 0.03162 µM) | relative viability ([4]; first compound 0.03162 µM)
1 | ChaGo-K-1 | 0.961 | 0.639 | 1.07 | 1.12 | 1.13 | 0.852 | 0.874 | 0.939 | 0.954 | 0.517 | 0.554 | 0.522 | 0.518 | 0.726 | 0.696 | 0.721 | 0.746 |  |  | 
2 | LC-2-ad | 0.417 |  | 0.421 | 0.44 | 0.328 | 0.966 | 0.889 | 0.804 | 0.666 | 0.82 | 0.758 | 0.691 | 0.756 | 0.712 | 0.561 | 0.561 | 0.475 | 0.884 | 0.781 | 0.351
3 | HCC-827 | 0.904 | 0.889 | 0.844 | 0.787 | 0.781 | 0.545 | 0.449 | 0.476 | 0.399 | 0.369 | 0.289 | 0.314 | 0.265 | 0.863 | 0.787 | 0.636 | 0.598 | 0.52 | 0.294 | 0.65
4 | HCC-15 | 0.811 |  | 0.725 | 0.687 | 0.63 | 0.409 | 0.325 | 0.37 | 0.304 | 0.662 | 0.535 | 0.523 | 0.498 | 0.871 | 0.768 | 0.684 | 0.581 |  |  | 
5 | NCI-H1734 | 0.685 | 0.622 | 0.52 | 0.499 | 0.398 | 0.617 | 0.581 | 0.56 | 0.481 | 0.46 | 0.539 | 0.461 | 0.43 | 0.731 | 0.619 | 0.649 | 0.48 | 0.6 | 0.524 | 0.459
6 | NCI-H2347 | 0.632 | 0.602 | 0.498 | 0.588 | 0.558 | 0.295 | 0.244 | 0.249 | 0.272 | 0.597 | 0.599 | 0.585 | 0.504 | 0.558 | 0.424 | 0.487 | 0.4 | 0.292 | 0.656 | 0.603
7 | NCI-H596 | 0.98 | 0.905 | 0.986 | 1.05 | 0.973 | 0.793 | 0.875 | 0.757 | 0.954 | 1.15 | 1.05 | 0.945 | 1.22 | 0.656 | 0.589 | 0.768 | 0.57 | 0.632 | 0.973 | 0.655
8 | LXF-289 | 0.747 | 0.811 | 0.782 | 0.684 | 0.612 | 0.662 | 0.632 | 0.619 | 0.605 | 0.367 | 0.411 | 0.363 | 0.422 | 0.77 | 0.66 | 0.782 | 0.672 | 0.633 | 0.405 | 0.268
9 | NCI-H1975 | 0.979 | 0.861 | 0.869 | 0.763 | 0.758 | 0.402 | 0.309 | 0.353 | 0.236 | 0.413 | 0.412 | 0.399 | 0.365 | 0.712 | 0.597 | 0.579 | 0.469 | 0.372 | 0.429 | 0.649
